In US20090155767A1, “Methods for a predictive diagnostic test for tamoxifen” (priority 2007, published 2009):
Where two headings read alike, the source gives them in different places.

Key:
[1] = system: stage II invasive breast cancer (ER+ subset); details: Cox univariate, tamoxifen vs control, cited from earlier work
[2] = system: stage II invasive breast cancer (ER+ subset); assay: Randomized clinical trial of two years of adjuvant tamoxifen vs no treatment (Swedish SBII:2a); recurrence-free survival by biomarker subgroup; assay type: in vivo, human; details: for HR RFS: ER+
From the text: From 1986 to 1991, 564 patients enrolled in a a randomized clinical trial for adjuvant tamoxifen treatment in early breast cancer (Swedish SBII:2a)(15). Criteria for enrollment included premenopausal status or age less than 50 years, with stage II invasive breast cancer. Patients were randomized to receive two years of tamoxifen (n=276) or no treatment (control, n=288), and were followed for disease-free and overall survival, with a median follow-up of 13.9 years. A detailed description of the trial and results has previously been published (15,16).
For analysis of tamoxifen response, only the ER+ subset of patients were included (16). By IHC, a cut-off value of at least 10% nuclear immunoreactivity was used to classify patients as ER-positive.
The statistical calculations were performed using SPSS Version 13.0 (SPSS, Chicago, Ill.) and Stata Version 9.2 (StataCorp, College Station, Tex.). Pearson's correlation coefficient (R) was used to assess the correlation between log AQUA-EGFR scores from redundant tumor cores and Spearman's Rho to assess the correlation between AQUA-EGFR score and other variables. Recurrence-free survival (RFS) was chosen as endpoint in the present study. RFS included breast cancer specific death, distant, regional and local recurrences and all analyses were performed with the intention to treat rule. The AQUA-EGFR score was dichotomized at the median in order to avoid bias problems associated with cut-off optimization. Kaplan-Meier plots were used to illustrate the survival in high and low EGFR, respectively, and the log rank test to test for equality of survival curves. Hazard ratios were estimated using Cox regression. Proportional hazards assumptions were checked using Schoenfeld's test. The null hypothesis of equal treatment effects in high and low EGFR were evaluated using a Cox model with a term for the interaction between EGFR class and treatment. Cox models with continuous AQUA-EGFR score were also fitted. The original score and a logarithmic transformation of the score were evaluated. […] All p-values corresponded to two-sided tests and values less than 0.05 were considered significant.

## CC/C(=C(\c1ccccc1)c1ccc(OCCN(C)C)cc1)c1ccccc1 [Tamoxifen]
[1]; HER2 IHC 0-2+ (Herceptest), N = 252
  HR RFS: 0.64
[1]; HER2 IHC 3+ (Herceptest), N = 23
  HR RFS: 0.67
[2]; Cox multivariate, Tamoxifen Treatment (+/-), n = 324 (available data in 186 patients)
  HR RFS: 0.571
[2]; Cox univariate, tamoxifen vs control, EGFR-AQUA High, n = 73
  HR RFS: 1.14
[2]; Cox univariate, tamoxifen vs control, EGFR-AQUA Low, n = 113
  HR RFS: 0.43
[2]; Cox univariate, tamoxifen vs control, EGFR-IHC High, n = 27
  HR RFS: 0.73
[2]; Cox univariate, tamoxifen vs control, EGFR-IHC Low, n = 232
  HR RFS: 0.57
[2]; Cox univariate, tamoxifen vs control, HER2-AQUA High, N = 10
  HR RFS: 0.28
[2]; Cox univariate, tamoxifen vs control, HER2-AQUA Low, N = 231
  HR RFS: 0.64
[2]; ER+ patients with low EGFR expression (AQUA), n=113, p=0.01
  Effect of two years of adjuvant tamoxifen on RFS (log rank, Kaplan-Meier): significant effect
[2]; ER+ patients, EGFR high group (AQUA), n=73, p=0.69
  Effect of two years of adjuvant tamoxifen on RFS (log rank, Kaplan-Meier): no treatment effect
[2]; ER+ tamoxifen treated patients with high EGFR expression (AQUA)
  10-year RFS: 52%
[2]; ER+ tamoxifen treated patients, EGFR low group (AQUA)
  10-year RFS: 78%
[2]; ER+ tamoxifen-treated patients, high vs low EGFR (AQUA), Log-Rank p=0.0411
  Association of high EGFR expression with outcome in tamoxifen-treated patients: shorter time to recurrence and breast cancer death
